Test results from patent US11155558B2, “Dual mode of action soluble guanylate cyclase activators and phosphodiesterase inhibitors and uses thereof” (TOPADUR PHARMA AG, priority 2017, dated 2021).
Read-outs that look alike come from different tables or passages of the source.

Assays:
[1] = biological target: recombinant human (rh) PDE5A (Homo sapiens (Human), UniProt O76074); experiment: Phosphodiesterase-5 activity assay (Example 110), radiometric SPA; type: biochemical
Protocol: The inhibition of recombinant human (rh) PDE5A by test compounds is measured in a radiometric assay based on Scintillation Proximity Assay (SPA) technology. The substrate [3H]cGMP/cGMP is hydrolysed to [3H] 5′ GMP/5′ GMP contingent on the activity of rhPDE5A. The ensuing [3H] 5′ GMP/5′ GMP but not [3H] cGMP/cGMP binds to SPA yttrium silicate beads in the presence of Zn^++ stimulating the scintillant within the bead to emit light that is detected by a ß-counter. The assay is performed in a 96 well format.
The assay is done in 20 mM Tris HCl pH 7.4, 5 mM MgCl2, […] cGMP/[3H] cGMP (about 60000 dpm/well) substrate with rhPDE5A1 (GST tagged, SIGMA E9034) added to an amount not exceeding 20% cGMP hydrolysis within 20 min in Tris 20 mM pH 7.4 supplemented with 0.01% bovine serum albumin (BSA) in the presence of test compounds or vehicle (0.1% DMSO). The final assay volume amounts to 100 μl and the reaction is run for 20 min at 37° C.
The hydrolysis of [3H] cGMP/cGMP by rhPDE5A is terminated by adding SPA beads at 50 µl/well (Perkin Elmer, RPNQ0024), pre-diluted in water as per manufacturer's instructions and supplemented with 3-isobutyl-1-methylxanthine (1 mM). Beads are allowed to sediment for at least 30 min before measurement in a Wallac Microbeta 2 (Perkin Elmer).
In general, test compounds are added at seven different concentrations from […] in log steps. […] Results (IC50) are given as the mean from at least two independent experiments each performed in triplicate.

[2] = Measurements of human plasma protein binding; type: in vitro ADME
Protocol: An aliquot of 200 μL of human plasma containing test compound was spiked into donor well (red chamber) of the insert. 350 μL of PBS was spiked into receiver well (white chamber) of the insert.
The samples were matrix equilibrated with opposite matrix (25 μL of plasma/buffer sample was matched with 25 μL of blank buffer/plasma). Matrix matched samples were precipitated with 200 μL of acetonitrile containing internal standard. Samples were vortexed at 1000 rpm for 5 min and centrifuged at 4000 rpm for 10 min. Supernatant was separated, diluted 2 fold with water and analysed in LC-MS/MS. TO control samples were processed immediately after the preparation of plasma working stock solutions. These samples serves as a measure for calculating the percentage recovery of test compounds.

[3] = biological target: PDE5 enzyme isolated from human platelets (Homo sapiens (Human), UniProt O76074); experiment: PDE5 assay (Example 109), formation of 5′GMP from cGMP, SPA;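 also: tritiated 5′GMP counted by scintillation after SPA bead capture, enzyme reaction run 60 min at 22 °C, basal control is the mixture without enzyme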
Protocol: Evaluation of the effects of compounds of the present invention on the activity of the human phosphodiesterase-5 quantified by measuring the formation of 5′GMP from cGMP using PDE5 enzyme isolated from human platelets.
Thereafter, the reaction is initiated by addition of the enzyme and the mixture is incubated for 60 min at 22° C.
For basal control measurements, the enzyme is omitted from the reaction mixture. Following incubation SPA beads are added. After 20 min at 22° C. under shaking, the amount of [3H]5′GMP is quantified with a scintillation counter (Topcount, Packard).
The standard inhibitory reference compound is dipyridamole, which is tested in each experiment at several concentrations to obtain an inhibition curve from which its IC50 value is calculated.

| SMILES | IC50 [1] [nM] | further results |
| --- | --- | --- |
| CCCOc1ccc(S(=O)(=O)N2CCC([C@H](CO[N+](=O)[O-])O[N+](=O)[O-])CC2)cc1-c1nc2c(CCC)cn(CC)c2c(=O)[nH]1 [Compound 1k, (R)-1-(1-((3-(5-ethyl-4-oxo-7-propyl-4,5-dihydro-3H-pyrrolo[3,2-d]pyrimidin-2-yl)-4-propoxyphenyl)sulfonyl)piperidin-4-yl)ethane-1,2-diyl dinitrate] | 3.5 |  |
| CCCOc1ccc(S(=O)(=O)N2CCC([C@@H](CO[N+](=O)[O-])O[N+](=O)[O-])CC2)cc1-c1nc2c(CCC)cn(CC)c2c(=O)[nH]1 [Compound 1l, (S)-1-(1-((3-(5-ethyl-4-oxo-7-propyl-4,5-dihydro-3H-pyrrolo[3,2-d]pyrimidin-2-yl)-4-propoxyphenyl)sulfonyl)piperidin-4-yl)ethane-1,2-diyl dinitrate] | 3.2 |  |
| CCCOc1ccc(S(=O)(=O)N2C[C@@H](CCO[N+](=O)[O-])N(C)[C@@H](CCO[N+](=O)[O-])C2)cc1-c1nc2c(CCC)cn(CC)c2c(=O)[nH]1 [Compound 1m, ((2S,6R)-4-((3-(5-ethyl-4-oxo-7-propyl-4,5-dihydro-3H-pyrrolo[3,2-d]pyrimidin-2-yl)-4-propoxyphenyl)sulfonyl)-1-methylpiperazine-2,6-diyl)bis(ethane-2,1-diyl) dinitrate] | 8.6 |  |
| CCCOc1ccc(S(=O)(=O)N2CCC(CCO[N+](=O)[O-])(CCO[N+](=O)[O-])CC2)cc1-c1nc2c(CCC)cn(CC)c2c(=O)[nH]1 [Compound 1n, (1-((3-(5-ethyl-4-oxo-7-propyl-4,5-dihydro-3H-pyrrolo[3,2-d]pyrimidin-2-yl)-4-propoxyphenyl)sulfonyl)piperidine-4,4-diyl)bis(ethane-2,1-diyl) dinitrate] | 2.7 |  |
| CCCOc1ccc(S(=O)(=O)N2C[C@H](CCO[N+](=O)[O-])N(C)[C@@H](CCO[N+](=O)[O-])C2)cc1-c1nc2c(CCC)cn(CC)c2c(=O)[nH]1 [Compound 1o, ((2S,6S)-4-((3-(5-ethyl-4-oxo-7-propyl-4,5-dihydro-3H-pyrrolo[3,2-d]pyrimidin-2-yl)-4-propoxyphenyl)sulfonyl)-1-methylpiperazine-2,6-diyl)bis(ethane-2,1-diyl) dinitrate] | 7.1 |  |
| CCCc1c(/C=N/O)n(C)c2c(=O)[nH]c(-c3cc(S(=O)(=O)N4CCN(CCO[N+](=O)[O-])CC4)ccc3OCC)nc12 [Compound 2g, (E)-2-(4-((4-ethoxy-3-(6-((hydroxyimino)methyl)-5-methyl-4-oxo-7-propyl-4,5-dihydro-3H-pyrrolo[3,2-d]pyrimidin-2-yl)phenyl)sulfonyl)piperazin-1-yl)ethyl nitrate] | 31 |  |
| CCCOc1ccc(S(=O)(=O)N2CCN(CCCO[N+](=O)[O-])CC2)cc1-c1nc2c(CCC)cn(C)c2c(=O)[nH]1 [Compound 3d, 3-(4-((3-(5-methyl-4-oxo-7-propyl-4,5-dihydro-3H-pyrrolo[3,2-d]pyrimidin-2-yl)-4-propoxyphenyl)sulfonyl)piperazin-1-yl)propyl nitrate] | 9 |  |
| CCCOc1ccc(S(=O)(=O)N2CCN(CCO[N+](=O)[O-])CC2)cc1-c1nc2c(CCC)c(/C=N/O)n(C)c2c(=O)[nH]1 [Compound 3e, (E)-2-(4-((3-(6-((hydroxyimino)methyl)-5-methyl-4-oxo-7-propyl-4,5-dihydro-3H-pyrrolo[3,2-d]pyrimidin-2-yl)-4-propoxyphenyl)sulfonyl)piperazin-1-yl)ethyl nitrate] | 12 |  |
| CCCOc1ccc(S(=O)(=O)N2CCN(CCCO[N+](=O)[O-])CC2)cc1-c1nc2c(CCC)c(/C=N/O)n(C)c2c(=O)[nH]1 [Compound 3f, (E)-3-(4-((3-(6-((hydroxyimino)methyl)-5-methyl-4-oxo-7-propyl-4,5-dihydro-3H-pyrrolo[3,2-d]pyrimidin-2-yl)-4-propoxyphenyl)sulfonyl)piperazin-1-yl)propyl nitrate] | 42 |  |
| CCCOc1ccc(S(=O)(=O)N2CCC([C@H](CO[N+](=O)[O-])O[N+](=O)[O-])CC2)cc1-c1nc2c(CCC)cn(C)c2c(=O)[nH]1 [Compound 3g, (R)-1-(1-((3-(5-methyl-4-oxo-7-propyl-4,5-dihydro-3H-pyrrolo[3,2-d]pyrimidin-2-yl)-4-propoxyphenyl)sulfonyl)piperidin-4-yl)ethane-1,2-diyl dinitrate] | 23 |  |
| CCCOc1ccc(S(=O)(=O)N2CCC([C@@H](CO[N+](=O)[O-])O[N+](=O)[O-])CC2)cc1-c1nc2c(CCC)cn(C)c2c(=O)[nH]1 [Compound 3h, (S)-1-(1-((3-(5-methyl-4-oxo-7-propyl-4,5-dihydro-3H-pyrrolo[3,2-d]pyrimidin-2-yl)-4-propoxyphenyl)sulfonyl)piperidin-4-yl)ethane-1,2-diyl dinitrate] | 3.7 |  |
| CCCOc1ccc(S(=O)(=O)N2CCC(CO[N+](=O)[O-])(CO[N+](=O)[O-])CC2)cc1-c1nc2c(CCC)cn(C)c2c(=O)[nH]1 [Compound 3i, (1-((3-(5-methyl-4-oxo-7-propyl-4,5-dihydro-3H-pyrrolo[3,2-d]pyrimidin-2-yl)-4-propoxyphenyl)sulfonyl)piperidine-4,4-diyl)bis(methylene) dinitrate] | 14 |  |
| CCCOc1ccc(S(=O)(=O)N2CCC(CO[N+](=O)[O-])CC2)cc1-c1nc2c(CCC)cn(C)c2c(=O)[nH]1 [Compound 3k, (1-((3-(5-methyl-4-oxo-7-propyl-4,5-dihydro-3H-pyrrolo[3,2-d]pyrimidin-2-yl)-4-propoxyphenyl)sulfonyl)piperidin-4-yl)methyl nitrate] | 15 |  |
| CCCOc1ccc(S(=O)(=O)N2CCC([C@@H](O)CO[N+](=O)[O-])CC2)cc1-c1nc2c(CCC)cn(C)c2c(=O)[nH]1 [Compound 3l, (R)-2-hydroxy-2-(1-((3-(5-methyl-4-oxo-7-propyl-4,5-dihydro-3H-pyrrolo[3,2-d]pyrimidin-2-yl)-4-propoxyphenyl)sulfonyl)piperidin-4-yl)ethyl nitrate] | 2 |  |
| CCCOc1ccc(S(=O)(=O)N2CCC([C@H](CO[N+](=O)[O-])O[N+](=O)[O-])CC2)cc1-c1nc2c(CCC)c(/C=N/O)n(C)c2c(=O)[nH]1 [Compound 3o, (R,E)-1-(1-((3-(6-((hydroxyimino)methyl)-5-methyl-4-oxo-7-propyl-4,5-dihydro-3H-pyrrolo[3,2-d]pyrimidin-2-yl)-4-propoxyphenyl)sulfonyl)piperidin-4-yl)ethane-1,2-diyl dinitrate] | 13 |  |
| CCCOc1ccc(S(=O)(=O)N2CCC([C@@H](CO[N+](=O)[O-])O[N+](=O)[O-])CC2)cc1-c1nc2c(CCC)c(/C=N/O)n(C)c2c(=O)[nH]1 [Compound 3p, (S,E)-1-(1-((3-(6-((hydroxyimino)methyl)-5-methyl-4-oxo-7-propyl-4,5-dihydro-3H-pyrrolo[3,2-d]pyrimidin-2-yl)-4-propoxyphenyl)sulfonyl)piperidin-4-yl)ethane-1,2-diyl dinitrate] | 12 |  |
| CCCOc1ccc(S(=O)(=O)N2CCC([C@@H](O)CO[N+](=O)[O-])CC2)cc1-c1nc2c(CCC)c(/C=N/O)n(C)c2c(=O)[nH]1 [Compound 3q, (R,E)-2-hydroxy-2-(1-((3-(6-((hydroxyimino)methyl)-5-methyl-4-oxo-7-propyl-4,5-dihydro-3H-pyrrolo[3,2-d]pyrimidin-2-yl)-4-propoxyphenyl)sulfonyl)piperidin-4-yl)ethyl nitrate] |  | IC50 ([1]; asterisk: assay described in Example 110, rhPDE5A1, read-out: IC50): 3.3 nM |
| CCCOc1ccc(S(=O)(=O)N2CCN(CCO)CC2)cc1-c1nc2c(CCC)cn(CC)c2c(=O)[nH]1 [mirodenafil, 5-ethyl-2-(5-((4-(2-hydroxyethyl)piperazin-1-yl)sulfonyl)-2-propoxyphenyl)-7-propyl-3,5-dihydro-4H-pyrrolo[3,2-d]pyrimidin-4-one, reference compound] |  | % Bound in Plasma [2]: 98.94%; fraction unbound [2]: 0.0106; recovery ([2]; human): 99.2%; IC50 [3]: 0.34 nM; % inhibition at 5.0E−09 M ([3]; percent inhibition of control enzyme activity at 5.0E−09 M, assay of Example 109): 64.9% |
